Patent US6288073A, “Acronycine derivatives, preparation method and pharmaceutical compositions” (Adir et Compagnie, priority 1997, dated 2001)
pIC50: −log10 of the molar value.

What was measured:
[1] = tested on: Human Colon Carcinoma HT29; experiment: Anti-tumour activity on human colon carcinoma HT29 grafted onto nude mice; format: in vivo, nude mice (human HT29 xenograft)
Source text: Line HT29 was supplied by the ATCC (American Type Culture Collection, Rockville, USA). The tumour cells were inoculated into female nude Swiss mice (10^7 cells per animal) by the subcutaneous route. The tumours were then removed and cut into fragments, which were grafted onto nude mice by the subcutaneous route. Once the tumour volume had reached from 50 to 100 mm^3, the mice were distributed into experimental groups containing 8 animals (control group) or 6 animals (treated groups) (day 0). The products were administered by the i.v. route once per week for 3 weeks. The tumours were measured twice per week and the tumour volumes were calculated according to the formula: volume (mm^3)=length (mm)×width^2 […]/2 [formula]
with V0 and Vt being the initial volume and the volume at measurement time t, respectively.

Murine leukaemia L1210 = experiment: Cytotoxicity for L1210 cells in culture (Microculture Tetrazolium Assay); format: cell-based; conditions: Mus musculus, exposure 48 hours (4 periods of cell doubling), viable cells by Microculture Tetrazolium Assay
Protocol: Murine leukaemia L1210 was used in vitro. The cells are cultured in RPMI 1640 complete culture medium containing 10% foetal calf serum, 2 mM giutamine, 50 units/ml of penicillin, 50 μg/ml of streptomycin and 10 mM Hepes, pH: 7.4. The cells are distributed on microplates and exposed to the cytotoxic compounds for 4 periods of cell doubling, i.e. 48 hours. The number of viable cells is then quantified by means of a colorimetric assay, the Microculture Tetrazolium Assay (J. Carmichael et al., Cancer Res., 47, 936-942, (1987)). The results are expressed as IC50, the concentration of cytotoxic agent which inhibits the proliferation of the treated cells by 50%.

[2] = tested on: Line P 388 (murine leukaemia); experiment: Anti-tumour activity on line P 388 in vivo; design: species or system mice; conditions: for % T/C: P 388 inoculated i.p. into female B6D2F1 mice, product i.p. on day 1 at the optimum dose; for Anti-tumour activity on line P 388 (in words): P 388 model in B6D2F1 mice, i.p., d1
Protocol: Line P 388 (murine leukaemia) was supplied by the National Cancer Institute (Frederick, USA). The tumour cells (10^6 cells) were inoculated on day 0 into the peritoneal cavity of female B6D2F1 mice (Iffa Credo, France). Six mice weighing from 18 to 20 g were used for each experimental group. The products were administered by the intraperitoneal route on day 1.
The anti-tumour activity is expressed as % TIC: [formula]

Row | Compound | Anti-tumour activity on line HT29 (in words) ([1]; HT29 model in nude mice, i.v.) | % T/C on day 32 ([1]; HT29 s.c. grafts in nude Swiss mice, i.v. d 0, 7, 14 at optimum dose, tumour volume) [%] | inhibition of growth of the HT29 tumour ([1]; on day 32, HT29 s.c. grafts in nude mice, i.v. once per week for 3 weeks) [%] | pIC50 (Murine leukaemia L1210) | % T/C [2] [%] | Anti-tumour activity on line P 388 (in words) [2]
1 | COc1cc2c(c3c1c(=O)c1cc4ccccc4cc1n3C)[C@@H](OC(C)=O)[C@@H](OC(C)=O)C(C)(C)O2 (relative stereo) [Example 5, (±)-cis-1,2-Diacetoxy-4-methoxy-3,3,14-trimethyl-2,3,7,14-tetrahydro-1H-benzo[b]pyrano[3,2-h]acridin-7-one] | very active | 17 | 83 |  |  | 
2 | COc1cc2c(c3c1c(=O)c1cc4ccccc4cc1n3C)[C@H]1OC(=O)O[C@H]1C(C)(C)O2 (relative stereo) [Example 7, cis-7-Methoxy-4,4,15-trimethyl-3a,8,15,15c-tetrahydro-4H-benzo[b][1,3]dioxolo[4',5':4,5]pyrano[3,2-h]acridine-2,8-dione] |  |  |  | 7.64 | 327 | very active
3 | COc1cc2c(c3c1c(=O)c1ccccc1n3C)C=CC(C)(C)O2 [Acronycine] |  |  |  | 4.57 | 125 | only marginally active
